Measured values published in US20080138838A1, “DIAGNOSIS OF ZD1839 RESISTANT TUMORS” (CEDARS-SINAI MEDICAL CENTER, priority 2002, published 2008).

System: androgen-independent human cell line CWR22R grown as a xenograft
Experiment: ZD1839 resistant xenograft model of human prostate cancer
Type: in vivo
Procedure: The androgen-independent human cell line CWR22R was grown as a xenograft in nude mice. See Nagabhushan, et al. (1996) Cancer Res. 56:3042-3046; Agus, et al. (1999) J. Nat'l Cancer Inst. 91:1869-1876; and Bubendorf, et al. (1999) J. Nat'l Cancer Inst. 91:1758-1764. […] The mice were treated continuously with sub-therapeutic doses, and the tumors were allowed to grow for 3-4 weeks, before surgical removal of the tumors. The tumor from an individual mouse was then minced, and a small portion was then injected into a healthy nude mouse, establishing a second passage of the tumor. This mouse was then treated continuously with the same sub-therapeutic dose of ZD1839. This process was repeated 10 times, and a portion of each generation of xenograft tumor was collected. […] RNA from each generation of tumor was then isolated, and individual mRNA species were quantified using a custom Affymetrix GENECHIP® (DNA microarray chip) oligonucleotide microarray (Eos Hu03), with probes to interrogate approximately 46,000 unique mRNA transcripts. […] The gene products of the genes listed in Tables 1A-C may be particularly useful as targets in the treatment of ZD1839 resistant tumors derived from prostate cancer, small cell lung cancer, breast cancer, glioblastoma, cervical cancer, colon cancer, head and neck cancer, renal cell carcinoma, and pancreatic cancer. Prostate cancer includes epithelial neoplasms (e.g., adenocarcinoma, small cell tumors, transitional cell carcinoma, carcinoma in situ, and basal cell carcinoma), carcinosarcoma, non-epithelial neoplasms (e.g., mesenchymal and lymphoma), germ cell tumors, prostatic intraepithelial neoplasia (PIN), hormone independent prostate cancer, and metastatic prostate cancer (e.g., to bone, lung, or lymph node).

COc1cc2ncnc(Nc3ccc(F)c(Cl)c3)c2cc1OCCCN1CCOCC1 [ZD1839]
response of xenograft tumors to therapeutic doses of ZD1839 (end of the process (passaging repeated 10 times under continuous sub-therapeutic doses, nude mice)): fully resistant to therapeutic doses
response of xenograft tumors to therapeutic doses of ZD1839 (initially (parental CWR22R xenograft in nude mice)): sensitive to therapeutic doses
resistance of xenograft tumors to therapeutic doses of ZD1839 (successive passages in nude mice under continuous sub-therapeutic doses): increased with each generation
